Source: US5200505A, “R106 compounds” (Takara Shuzo Co., Ltd., priority 1990, dated 1993)
Numbered stars: 1 amine (or outer) side, 2 acyl side, 3 side chain; on linkers, the order of the positions; unused ones are H or OH. Square brackets hold non-standard residues; d marks the D form. Peptide text beside a SMILES is read from it. NMePhe(3-F) = CN[C@@H](Cc1cccc(F)c1)C(=O)O; NMePhe(2-F) = CN[C@@H](Cc1ccccc1F)C(=O)O; NMeVal(β-OH) = CN[C@H](C(=O)O)C(C)(C)O; Phe(3-F) = N[C@@H](Cc1cccc(F)c1)C(=O)O; Phe(2-F) = N[C@@H](Cc1ccccc1F)C(=O)O; NMeY = CN[C@@H](Cc1ccc(O)cc1)C(=O)O; NMeF = CN[C@@H](Cc1ccccc1)C(=O)O; aIle = CC[C@@H](C)[C@H](N)C(=O)O; X1 = CCC(C)C(O[*:1])C(=O)[*:2]; NMeV = CN[C@H](C(=O)O)C(C)C; NMeS = CN[C@@H](CO)C(=O)O; Thz = O=C(O)[C@@H]1CSCN1

Experiment: Solubility in water
Type: physicochemical
Conditions: compared with antibiotics R106

| SMILES | solubility in water |
| --- | --- |
| CCC(C)C1OC(=O)[C@H](C(C)(C)O)N(C)C(=O)[C@H](CC(C)C)NC(=O)[C@H](C(C)C)N(C)C(=O)[C@H]([C@H](C)CC)NC(=O)[C@@H]2CCCN2C(=O)[C@H](Cc2ccccc2F)N(C)C(=O)[C@H](Cc2ccccc2F)NC(=O)[C@H](C(C)C)N(C)C1=O (stereo partly drawn) [Compound 1] (cyclo(L[NMeVal(β-OH)][X1][NMeV][Phe(2-F)][NMePhe(2-F)]P[aIle][NMeV])) | higher |
| CCC(C)C1OC(=O)[C@H](C(C)(C)O)N(C)C(=O)[C@H](CC(C)C)NC(=O)[C@H](C(C)C)N(C)C(=O)[C@H]([C@H](C)CC)NC(=O)[C@@H]2CCCN2C(=O)[C@H](CO)N(C)C(=O)[C@H](Cc2ccccc2)NC(=O)[C@H](C(C)C)N(C)C1=O (stereo partly drawn) [Compound 9] (cyclo(F[NMeS]P[aIle][NMeV]L[NMeVal(β-OH)][X1][NMeV])) | higher |
| CCC(C)C1OC(=O)[C@H](C(C)(C)O)N(C)C(=O)[C@H](CC(C)C)NC(=O)[C@H](C(C)C)N(C)C(=O)[C@H]([C@H](C)CC)NC(=O)[C@@H]2CCCN2C(=O)[C@H](Cc2ccc(O)cc2)N(C)C(=O)[C@H](Cc2ccc(O)cc2)NC(=O)[C@H](C(C)C)N(C)C1=O (stereo partly drawn) [Compound 3] (cyclo(L[NMeVal(β-OH)][X1][NMeV]Y[NMeY]P[aIle][NMeV])) | higher |
| CCC(C)C1OC(=O)[C@H](C(C)(C)O)N(C)C(=O)[C@H](CC(C)C)NC(=O)[C@H](C(C)C)N(C)C(=O)[C@H]([C@H](C)CC)NC(=O)[C@@H]2CSCN2C(=O)[C@H](Cc2ccccc2)N(C)C(=O)[C@H](Cc2ccccc2)NC(=O)[C@H](C(C)C)N(C)C1=O (stereo partly drawn) [Compound 5] (cyclo(F[NMeF][Thz][aIle][NMeV]L[NMeVal(β-OH)][X1][NMeV])) | higher |
| CCC(C)C1OC(=O)[C@H](C(C)(C)O)N(C)C(=O)[C@H](CC(C)C)NC(=O)[C@H](C(C)C)N(C)C(=O)[C@H]([C@H](C)CC)NC(=O)[C@@H]2CCCN2C(=O)[C@H](Cc2cccc(F)c2)N(C)C(=O)[C@H](Cc2cccc(F)c2)NC(=O)[C@H](C(C)C)N(C)C1=O (stereo partly drawn) [Compound 2] (cyclo(L[NMeVal(β-OH)][X1][NMeV][Phe(3-F)][NMePhe(3-F)]P[aIle][NMeV])) | higher |
